# Assay results as given in patent publication US20260250290A1 (BRISTOL-MYERS SQUIBB COMPANY, priority 2023, published 2026).
# Counter-ions that a name gives are not always drawn.
# Molecular target: T1, full length SGK1 (Homo sapiens, UniProt O00141)
# T1 construct: 125 μM full length SGK1 (Life Technologies Part #PR7358A); purchased Life Technologies PR7358A
# T1 sequence (O00141 1-431): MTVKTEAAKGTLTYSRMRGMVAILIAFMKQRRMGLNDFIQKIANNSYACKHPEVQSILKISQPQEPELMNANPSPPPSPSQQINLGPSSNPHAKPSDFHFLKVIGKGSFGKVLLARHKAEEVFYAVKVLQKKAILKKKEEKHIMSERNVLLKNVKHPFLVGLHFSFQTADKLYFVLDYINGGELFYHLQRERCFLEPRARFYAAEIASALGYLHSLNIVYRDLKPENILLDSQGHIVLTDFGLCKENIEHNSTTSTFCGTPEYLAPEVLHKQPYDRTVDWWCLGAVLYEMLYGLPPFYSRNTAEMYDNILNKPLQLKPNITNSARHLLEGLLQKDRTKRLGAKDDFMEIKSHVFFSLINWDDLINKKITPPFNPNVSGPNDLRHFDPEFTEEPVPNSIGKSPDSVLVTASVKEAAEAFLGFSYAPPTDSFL
# Experiment: SGK1 inhibition Assay A (Caliper LabChip electrophoretic separation of fluorescent peptide substrate and phosphorylated product)
# Format: biochemical
# Conditions: Assay A; 20 μM ATP, 40 min incubation; read-out: SGK1 IC50
row,IC50,Structure (SMILES)
1,374 nM,"Nc1ncnn2c(-c3cncnc3)cc(N3CCC[C@@H](NC(=O)c4sc(C(F)F)cc4N4CC5(COC5)C4)C3)c12 [Example 314, (R)—N-(1-(4-amino-7-(pyrimidin-5-yl)pyrrolo[2,1-f][1,2,4]triazin-5-yl)piperidin-3-yl)-5-(difluoromethyl)-3-(2-oxa-6-azaspiro[3.3]heptan-6-yl)thiophene-2-carboxamide]"
2,39 nM,CC(=O)N1CC=C(c2cc(N3CCC[C@@H](NC(=O)c4ccnc(N(C)C)c4)C3)c3c(N)ncnn23)C1 [Example 717]
3,67 nM,"CC(=O)N1CC=C(c2cc(N3CCC[C@@H](NC(=O)c4ccc(-n5ccnc5)cc4)C3)c3c(N)ncnn23)C1 [Example 460, (R)-N-(1-(7-(1-acetyl-2,5-dihydro-1H-pyrrol-3-yl)-4-aminopyrrolo[2,1-f][1,2,4]triazin-5-yl)piperidin-3-yl)-4-(1H-imidazol-1-yl)benzamide]"
4,19 nM,Nc1ncnn2c(-c3ccnc(C(F)F)c3)cc(N3CCC[C@@H](NC(=O)c4sc(Cl)cc4OCCN4CC(F)(F)C4)C3)c12 [Example 297]
5,10 nM,CC(=O)N1CC=C(c2cc(N3CCC[C@@H](NC(=O)c4ccn(C(F)F)n4)C3)c3c(N)ncnn23)C1 [Example 737]
6,38 nM,"CC(=O)N1CC=C(c2cc(N3CCC[C@@H](NC(=O)c4ccc(C#N)cc4)C3)c3c(N)ncnn23)C1 [Example 494, (R)-N-(1-(7-(1-acetyl-2,5-dihydro-1H-pyrrol-3-yl)-4-aminopyrrolo[2,1-f][1,2,4]triazin-5-yl)piperidin-3-yl)-4-cyanobenzamide]"
7,4 nM,Nc1ncnn2c(-c3ccc4nncn4c3)cc(N3CCC[C@@H](NC(=O)c4ccc(Cl)s4)C3)c12 [Example 252]
8,3 nM,"CC(=O)N1CC=C(c2cc(N3CCC[C@@H](NC(=O)c4sc(Cl)cc4OCCNC(=O)C(F)F)C3)c3c(N)ncnn23)C1 [Example 329, (R)—N-(1-(7-(1-acetyl-2,5-dihydro-1H-pyrrol-3-yl)-4-aminopyrrolo[2,1-f][1,2,4]triazin-5-yl)piperidin-3-yl)-5-chloro-3-(2-(2,2-difluoroacetamido)ethoxy)thiophene-2-carboxamide]"
9,19 nM,"CN1CC=C(c2cc(C(F)F)sc2C(=O)N[C@@H]2CCCN(c3cc(-c4ccc(C(N)=O)c(F)c4)n4ncnc(N)c34)C2)CC1 [Example 323, (R)—N-(1-(4-amino-7-(4-carbamoyl-3-fluorophenyl)pyrrolo[2,1-f][1,2,4]triazin-5-yl)piperidin-3-yl)-5-(difluoromethyl)-3-(1-yl)-5-(difluoromethyl)-3-(1-methyl-1,2,3,6-tetrahydropyridin-4-yl)thiophene-2-carboxamide]"
10,146 nM,"CC(=O)N1CC=C(c2cc(N3CCC[C@@H](NC(=O)c4nn(-c5ccccc5)nc4C)C3)c3c(N)ncnn23)C1 [Example 471, (R)-N-(1-(7-(1-acetyl-2,5-dihydro-1H-pyrrol-3-yl)-4-aminopyrrolo[2,1-f][1,2,4]triazin-5-yl)piperidin-3-yl)-5-methyl-2-phenyl-2H-1,2,3-tricazole-4-arboxamide]"
11,6 nM,"NC(=O)c1ccc(-c2cc(N3CCC[C@@H](NC(=O)c4sc(Cl)cc4OC4CN(CC(F)F)C4)C3)c3c(N)ncnn23)cc1F [Example 386, (R)-N-(1-(4-amino-7-(4-carbamoyl-3-fluorophenyl)pyrrolo[2,1-f][1,2,4]triazin-5-yl)piperidin-3-vl)-5-chloro-3-((1-(2,2-difluoroethyl)azetidin-3-yl)oxy)thiophene-2-carboxamide]"
12,131 nM,"Cc1nc(C)c(C(=O)N[C@@H]2CCCN(c3cc(-c4ccc(=O)n(CC(C)C)c4)n4ncnc(N)c34)C2)s1 [Example 514, (R)-N-(1-(4-amino-7-(1-isobutyl-6-oxo-1,6-dihydropyridin-3-yl)pyrrolo[2,1-f][1,2,4]triazin-5-yl)piperidin-3-yl)-2,4-dimethylthiazole-5-carboxamide]"
13,366 nM,"CC(=O)N1CC=C(c2cc(N3CCC[C@@H](NC(=O)c4nc(F)ccc4N4CCN(C)CC4)C3)c3c(N)ncnn23)C1 [Example 745, (R)-N-(1-(7-(1-acetyl-2,5-dihydro-1H-pyrrol-3-yl)-4-aminopyrrolo[2,1-f][1,2,4]triazin-5-yl)piperidin-3-yl)-6-fluoro-3-(4-methylpiperazin-1-yl)picolinamide]"
14,50 nM,"CC(=O)N1CCC(Oc2cc(C(F)F)sc2C(=O)N[C@@H]2CCCN(c3cc(C4=CCN(C(C)=O)C4)n4ncnc(N)c34)C2)CC1 [Example 412, (R)-N-(1-(7-(1-acetyl-2,5-dihydro-1H-pyrrol-3-yl)-4-aminopyrrolo[2,1-f][1,2,4]triazin-5-yl)piperidin-3-yl)-3-((1-acetylpiperidin-4-yl)oxy)-5-(difluoromethyl)thiophene-2-carboxamide]"
15,57 nM,"CC(C)(C)OC(=O)N1CCC(Oc2c(C(=O)N[C@@H]3CCCN(c4cc(-c5ccc(C#N)nc5)n5ncnc(N)c45)C3)sc3ccccc23)CC1 [Example 654, tert-butyl (R)-4-((2-((1-(4-amino-7-(6-cyanopyridin-3-yl)pyrrolo[2,1-f][1,2,4]triazin-5-yl)piperidin-3-yl)carbamoyl)benzo[b]thiophen-3-yl)oxy)piperidine-1-carboxylate]"
16,1 nM,"N#Cc1ccc(-c2cc(N3CCC[C@@H](NC(=O)c4ccc(Cl)s4)C3)c3c(N)ncnn23)cc1F [Example 243, (R)-N-(1-(4-amino-7-(4-cyano-3-fluorophenyl)pyrrolo[2,1-f][1,2,4]triazin-5-yl)piperidin-3-yl)-5-chlorothiophene-2-carboxamide, TFA]"
17,7 nM,"Nc1ncnn2c(C3=CCN(C(=O)C4CCCOC4)C3)cc(N3CCC[C@@H](NC(=O)c4ccc(Cl)s4)C3)c12 (stereo partly drawn) [Example 893, N-((3R)-1-(4-amino-7-(1-(tetrahydro-2H-pyran-3-carbony1)-2,5-dihydro-1H-pyrrol-3-yl)pyrrolo[2,1-f][1,2,4]triazin-5-y1)piperidin-3-y1)-5-chlorothiophene-2-carboxamide]"
18,771 nM,"COC(=O)C12CC(C(=O)N[C@@H]3CCCN(c4cc(C5=CCN(C(C)=O)C5)n5ncnc(N)c45)C3)(C1)C2 [Example 478, Methyl(R)-3-((1-(7-(1-acetyl-2,5-dihydro-1H-pyrrol-3-yl)-4-aminopyrrolo[2,1-f][1,2,4]triazin-5-yl)piperidin-3-yl)carbamoyl)bicyclo[1.1.1]pentane-1-carboxylate]"
19,242 nM,"Nc1ncnn2c(C#Cc3ccncc3)cc(N3CCC[C@@H](NC(=O)c4ccc(Cl)s4)C3)c12 [Example 695, (R)—N-(1-(4-amino-7-(pyridin-4-ylethynyl)pyrrolo[2,1-f][1,2,4]triazin-5-yl)piperidin-3-yl)-5-chlorothiophene-2-carboxamide, TFA salt]"
20,8 nM,"Nc1ncnn2c(C3=CCN(C(=O)c4ccns4)C3)cc(N3CCC[C@@H](NC(=O)c4ccc(Cl)s4)C3)c12 [Example 885, (R)-N-(1-(4-amino-7-(1-(isothiazole-5-carbonyl)-2,5-dihydro-1H-pyrrol-3-yl)pyrrolo[2,1-f][1,2,4]triazin-5-y1)piperidin-3-y1)-5-chlorothiophene-2-carboxamide]"
21,13 nM,"CC(=O)N1CC=C(c2cc(N3CCC[C@@H](NC(=O)c4sc(C(F)F)cc4OCC4CCNCC4)C3)c3c(N)ncnn23)C1 [Example 350, (R)—N-(1-(7-(1-acetyl-2,5-dihydro-1H-pyrrol-3-yl)-4-aminopyrrolo[2,1-f][1,2,4]triazin-5-yl)piperidin-3-yl)-5-(difluoromethyl)-3-(piperidin-4-ylmethoxy)thiophene-2-carboxamide]"
22,181 nM,"CS(=O)(=O)c1ccc(-c2cc(N3CCC[C@@H](NC(=O)C4CC5(CCC5)C4)C3)c3c(N)ncnn23)cc1 [Example 29, (R)-N-(1-(4-amino-7-(4-(methylsulfonyl)phenyl)pyrrolo [2,1-f][1,2,4]triazin-5-yl)piperidin-3-yl)spiro[3.3]heptane-2-carboxamide]"
23,2 nM,"COC(=O)N1CC=C(c2cc(N3CCC[C@@H](NC(=O)c4sc(Cl)cc4OC4CCN(CCO)CC4)C3)c3c(N)ncnn23)C1 [Example 564, methyl (R)-3-(4-amino-5-(3-(5-chloro-3-((1-(2-hydroxyethyl)piperidin-4-yl)oxy)thiophene-2-carboxamido)piperidin-1-yl)pyrrolo[2,1-f][1,2,4]triazin-7-yl)-2,5-dihydro-1H-pyrrole-1-carboxylate]"
24,8 nM,"COc1ccc(C(=O)N[C@@H]2CCCN(c3cc(-c4ccc(S(C)(=O)=O)cc4)n4ncnc(N)c34)C2)s1 [Example 96, (R)-N-(1-(4-amino-7-(4-(methylsulfonyl)phenyl)pyrrolo[2,1-f][1,2,4]triazin-5-yl)piperidin-3-yl)-5-methoxythiophene-2-carboxamide]"
25,22 nM,"CCN(CC)CCOc1cc(C(F)F)sc1C(=O)N[C@@H]1CCCN(c2cc(C3=CCN(C(=O)OC)C3)n3ncnc(N)c23)C1 [Example 408, methyl (R)-3-(4-amino-5-(3-(3-(2-(diethylamino)ethoxy)-5-(difluoromethyl)thiophene-2-carboxamido)piperidin-1-yl)pyrrolo[2,1-f][1,2,4]triazin-7-yl)-2,5-dihydro-1H-pyrrole-1-carboxylate]"

row,Structure (SMILES),IC50
1,"CC(=O)N1CC=C(c2cc(N3CCC[C@@H](NC(=O)c4sc(Cl)cc4OC4CC(N(C)C)C4)C3)c3c(N)ncnn23)C1 (stereo partly drawn) [Example 599, (R)-N-(1-(7-(1-acetyl-2,5-dihydro-1H-pyrrol-3-yl)-4-aminopyrrolo[2,1-f][1,2,4]triazin-5-yl)piperidin-3-y1)-5-chloro-3-(3-(dimethylamino)cyclobutoxy)thiophene-2-carboxamide]",8 nM
